{
  "source": "ChEMBL document CHEMBL1681780",
  "about": "“A rational approach for the design and synthesis of 1-acetyl-3,5-diaryl-4,5-dihydro(1H)pyrazoles as a new class of potential non-purine xanthine oxidase inhibitors” (Bioorg Med Chem, 2011)",
  "data": [
    {"biological_target": "Xanthine dehydrogenase/oxidase (Bos taurus, UniProt P80457)", "sequence (P80457 whole entry)": "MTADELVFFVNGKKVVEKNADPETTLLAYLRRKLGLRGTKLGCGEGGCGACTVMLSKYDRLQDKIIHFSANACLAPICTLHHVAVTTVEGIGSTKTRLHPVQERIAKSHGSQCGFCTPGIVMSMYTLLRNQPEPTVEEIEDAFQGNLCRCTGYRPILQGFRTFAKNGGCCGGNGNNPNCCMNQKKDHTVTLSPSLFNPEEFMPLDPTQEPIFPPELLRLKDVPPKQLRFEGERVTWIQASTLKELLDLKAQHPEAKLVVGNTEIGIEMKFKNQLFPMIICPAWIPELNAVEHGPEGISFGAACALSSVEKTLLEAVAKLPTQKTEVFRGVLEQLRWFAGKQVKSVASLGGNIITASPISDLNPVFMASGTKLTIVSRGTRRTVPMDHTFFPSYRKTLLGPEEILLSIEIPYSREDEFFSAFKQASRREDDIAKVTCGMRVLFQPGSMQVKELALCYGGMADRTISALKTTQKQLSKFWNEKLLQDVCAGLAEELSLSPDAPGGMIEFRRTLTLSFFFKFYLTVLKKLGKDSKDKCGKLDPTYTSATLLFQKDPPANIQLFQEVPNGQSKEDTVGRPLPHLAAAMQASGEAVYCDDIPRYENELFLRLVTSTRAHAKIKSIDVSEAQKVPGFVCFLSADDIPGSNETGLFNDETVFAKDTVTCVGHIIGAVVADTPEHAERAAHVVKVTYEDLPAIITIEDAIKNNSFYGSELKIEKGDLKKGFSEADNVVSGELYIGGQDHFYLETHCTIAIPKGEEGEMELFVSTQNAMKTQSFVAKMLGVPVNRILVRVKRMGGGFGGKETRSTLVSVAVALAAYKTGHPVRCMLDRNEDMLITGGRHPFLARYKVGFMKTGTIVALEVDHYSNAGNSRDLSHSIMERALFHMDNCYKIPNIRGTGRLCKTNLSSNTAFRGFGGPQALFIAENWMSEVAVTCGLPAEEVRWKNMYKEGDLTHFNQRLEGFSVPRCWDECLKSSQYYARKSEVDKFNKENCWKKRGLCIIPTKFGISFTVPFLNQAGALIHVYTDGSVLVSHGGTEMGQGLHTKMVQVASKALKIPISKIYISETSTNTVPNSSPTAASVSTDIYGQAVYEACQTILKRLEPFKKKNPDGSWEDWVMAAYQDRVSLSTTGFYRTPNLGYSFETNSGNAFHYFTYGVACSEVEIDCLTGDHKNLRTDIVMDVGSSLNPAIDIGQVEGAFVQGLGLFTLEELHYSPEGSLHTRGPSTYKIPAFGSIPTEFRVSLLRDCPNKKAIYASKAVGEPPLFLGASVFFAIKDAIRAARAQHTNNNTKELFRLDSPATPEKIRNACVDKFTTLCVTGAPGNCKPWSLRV", "experiment": "Inhibition of bovine Xanthine oxidase assessed as decrease in uric acid production preincubated […] for 5 mins by spectrophotometry", "units": {"IC50": "µM"}, "values": [
      {"smiles": "COc1ccc(C2CC(c3ccccc3)=NN2C(C)=O)cc1", "note": "(stereo not drawn)", "IC50": 76.2},
      {"smiles": "COc1ccc(C2CC(c3ccc(Br)cc3)=NN2C(C)=O)cc1", "note": "(stereo not drawn)", "IC50": 66.5},
      {"smiles": "CC(=O)N1N=C(c2ccc(Br)cc2)CC1c1ccccc1", "note": "(stereo not drawn)", "IC50": 71.3},
      {"smiles": "COc1cc(C2CC(c3ccc(Br)cc3)=NN2C(C)=O)cc(OC)c1OC", "note": "(stereo not drawn)", "IC50": 74.9},
      {"smiles": "CC(=O)N1N=C(c2ccco2)CC1c1ccc(C)cc1", "note": "(stereo not drawn)", "IC50": 19.2},
      {"smiles": "CC(=O)N1N=C(c2ccco2)CC1c1ccc(Br)cc1", "note": "(stereo not drawn)", "IC50": 17.6},
      {"smiles": "CC(=O)N1N=C(c2ccccc2)CC1c1ccc2c(c1)OCO2", "note": "(stereo not drawn)", "IC50": 70.8},
      {"smiles": "CC(=O)N1N=C(c2ccco2)CC1c1ccc2ccccc2c1", "note": "(stereo not drawn)", "IC50": 91.4},
      {"smiles": "CC(=O)N1N=C(c2ccccc2)CC1c1ccc(N(C)C)cc1", "note": "(stereo not drawn)", "IC50": 73.6},
      {"smiles": "CC(=O)N1N=C(c2ccccc2)CC1c1cccc(Cl)c1Cl", "note": "(stereo not drawn)", "IC50": 55.1},
      {"smiles": "COc1cc(C2CC(c3ccccc3)=NN2C(C)=O)ccc1O", "note": "(stereo not drawn)", "IC50": 81.2},
      {"smiles": "COc1cc(C2CC(c3ccccc3)=NN2C(C)=O)cc(OC)c1OC", "note": "(stereo not drawn)", "IC50": 86.4},
      {"smiles": "COc1ccc(C2CC(c3ccc(Br)cc3)=NN2C(C)=O)cc1OC", "note": "(stereo not drawn)", "IC50": 64.1},
      {"smiles": "CC(=O)N1N=C(c2ccc(Br)cc2)CC1c1cccc(Cl)c1Cl", "note": "(stereo not drawn)", "IC50": 51.7},
      {"smiles": "CC(=O)N1N=C(c2ccc(Br)cc2)CC1c1ccc2c(c1)OCO2", "note": "(stereo not drawn)", "IC50": 66.3},
      {"smiles": "CC(=O)N1N=C(c2cccc([N+](=O)[O-])c2)CC1c1ccccc1", "note": "(stereo not drawn)", "IC50": 79.1},
      {"smiles": "COc1ccc(C2CC(c3cccc([N+](=O)[O-])c3)=NN2C(C)=O)cc1", "note": "(stereo not drawn)", "IC50": 73.3},
      {"smiles": "COc1ccc(C2CC(c3cccc([N+](=O)[O-])c3)=NN2C(C)=O)cc1OC", "note": "(stereo not drawn)", "IC50": 75.2},
      {"smiles": "CC(=O)N1N=C(c2cccc([N+](=O)[O-])c2)CC1c1cccc(Cl)c1Cl", "note": "(stereo not drawn)", "IC50": 58},
      {"smiles": "CC(=O)N1N=C(c2cccc([N+](=O)[O-])c2)CC1c1ccc2c(c1)OCO2", "note": "(stereo not drawn)", "IC50": 76.1},
      {"smiles": "CC(=O)N1N=C(c2cccc3ccccc23)CC1c1ccccc1", "note": "(stereo not drawn)", "IC50": 41.3},
      {"smiles": "CC(=O)N1N=C(c2cccc3ccccc23)CC1c1ccc([N+](=O)[O-])cc1", "note": "(stereo not drawn)", "IC50": 32.2},
      {"smiles": "CC(=O)N1N=C(c2cccc3ccccc23)CC1c1cccc([N+](=O)[O-])c1", "note": "(stereo not drawn)", "IC50": 36.4},
      {"smiles": "COc1ccc(C2CC(c3cccc4ccccc34)=NN2C(C)=O)cc1", "note": "(stereo not drawn)", "IC50": 43.5},
      {"smiles": "CC(=O)N1N=C(c2cccc3ccccc23)CC1c1cccc(Br)c1", "note": "(stereo not drawn)", "IC50": 38.7},
      {"smiles": "CC(=O)N1N=C(c2cccc3ccccc23)CC1c1ccccc1[N+](=O)[O-]", "note": "(stereo not drawn)", "IC50": 37.2},
      {"smiles": "COc1ccc(OC)c(C2CC(c3cccc4ccccc34)=NN2C(C)=O)c1", "note": "(stereo not drawn)", "IC50": 44.8},
      {"smiles": "COc1ccc(C2CC(c3cccc4ccccc34)=NN2C(C)=O)cc1OC", "note": "(stereo not drawn)", "IC50": 45.6},
      {"smiles": "COc1cc(C2CC(c3cccc4ccccc34)=NN2C(C)=O)cc(OC)c1OC", "note": "(stereo not drawn)", "IC50": 49.5},
      {"smiles": "COc1cc(OC)c(C2CC(c3cccc4ccccc34)=NN2C(C)=O)cc1OC", "note": "(stereo not drawn)", "IC50": 46.2},
      {"smiles": "COc1cc(C2CC(c3cccc4ccccc34)=NN2C(C)=O)ccc1O", "note": "(stereo not drawn)", "IC50": 45.7},
      {"smiles": "CC(=O)N1N=C(c2cccc3ccccc23)CC1c1cccc(Cl)c1Cl", "note": "(stereo not drawn)", "IC50": 34.2},
      {"smiles": "CC(=O)N1N=C(c2cccc3ccccc23)CC1c1ccc2c(c1)OCO2", "note": "(stereo not drawn)", "IC50": 47},
      {"smiles": "CC(=O)N1N=C(c2cccc3ccccc23)CC1c1ccc2ccccc2c1", "note": "(stereo not drawn)", "IC50": "> 100"},
      {"smiles": "CC(=O)N1N=C(c2ccco2)CC1c1ccccc1", "note": "(stereo not drawn)", "IC50": 26.4},
      {"smiles": "CC(=O)N1N=C(c2ccco2)CC1c1ccccc1[N+](=O)[O-]", "note": "(stereo not drawn)", "IC50": 14.2},
      {"smiles": "CC(=O)N1N=C(c2ccco2)CC1c1cccc([N+](=O)[O-])c1", "note": "(stereo not drawn)", "IC50": 13.1},
      {"smiles": "CC(=O)N1N=C(c2ccco2)CC1c1cccc(O)c1", "note": "(stereo not drawn)", "IC50": 27.2},
      {"smiles": "CC(=O)N1N=C(c2ccco2)CC1c1ccc([N+](=O)[O-])cc1", "note": "(stereo not drawn)", "IC50": 12.4},
      {"smiles": "CC(=O)N1N=C(c2ccco2)CC1c1ccc(Cl)cc1", "note": "(stereo not drawn)", "IC50": 15.2},
      {"smiles": "COc1ccc(C2CC(c3ccco3)=NN2C(C)=O)cc1", "note": "(stereo not drawn)", "IC50": 21.3},
      {"smiles": "CC(=O)N1N=C(c2ccco2)CC1c1ccc(N(C)C)cc1", "note": "(stereo not drawn)", "IC50": 23},
      {"smiles": "COc1ccc(OC)c(C2CC(c3ccco3)=NN2C(C)=O)c1", "note": "(stereo not drawn)", "IC50": 27.3},
      {"smiles": "COc1cc(C2CC(c3ccco3)=NN2C(C)=O)cc(OC)c1OC", "note": "(stereo not drawn)", "IC50": 28.7},
      {"smiles": "COc1ccc(C2CC(c3ccco3)=NN2C(C)=O)cc1OC", "note": "(stereo not drawn)", "IC50": 29.4},
      {"smiles": "COc1cc(OC)c(C2CC(c3ccco3)=NN2C(C)=O)cc1OC", "note": "(stereo not drawn)", "IC50": 30.2},
      {"smiles": "COc1cc(C2CC(c3ccco3)=NN2C(C)=O)ccc1O", "note": "(stereo not drawn)", "IC50": 26.8},
      {"smiles": "CC(=O)N1N=C(c2ccco2)CC1c1cccc(Cl)c1Cl", "note": "(stereo not drawn)", "IC50": 14.8},
      {"smiles": "CC(=O)N1N=C(c2ccco2)CC1c1ccc2c(c1)OCO2", "note": "(stereo not drawn)", "IC50": 28.1},
      {"smiles": "CC(=O)N1N=C(c2ccco2)CC1c1ccncc1", "note": "(stereo not drawn)", "IC50": 5.3},
      {"smiles": "c1ccc(C2=NNC(c3ccccc3)C2)cc1", "note": "(stereo not drawn)", "IC50": "> 100"},
      {"smiles": "CC(=O)N1N=C(c2ccccc2)CC1c1ccccc1", "note": "(stereo not drawn)", "IC50": 61.4},
      {"smiles": "COc1ccc(C2CC(c3ccccc3)=NN2C(C)=O)cc1OC", "note": "(stereo not drawn)", "IC50": 83.7}
    ]}
  ]
}
